Reference: patent publication US9481654B2, “Compositions and methods for inhibition of the JAK pathway” (Rigel Pharmaceuticals, Inc., priority 2006, dated 2016)

Tested on: IFNγ induced ICAM-1 (CD54) up-regulation in A549 lung epithelial cells (JAK/Stat pathway)
Assay: A549 Epithelial Line Stimulated with IFNγ (ICAM-1 surface expression, flow cytometry)
Type: cell-based, human
Details: Homo sapiens, A549, Table III Example 5
From the text: The activity of the compounds of the invention may additionally be characterized by assaying the effect of the 2,4-pyrimidinediamine compounds described herein on A549 lung epithelial cells and U937 cells. A549 lung epithelial cells and U937 cells up-regulate ICAM-1 (CD54) surface expression in response to a variety of different stimuli. Therefore, using ICAM-1 expression as readout, test compound effects on different signaling pathways can be assessed in the same cell type. Stimulation with IL-1β through the IL-1β receptor activates the TRAF6/NFκB pathway resulting in up-regulation of ICAM-1. IFNγ induces ICAM-1 up-regulation through activation of the JAK1/JAK2 pathway. The up-regulation of ICAM-1 can be quantified by flow cytometry across a compound dose curve and EC50 values are calculated. Exemplary assays of this type are described in greater detail in Examples 5 and 6.
A549 lung epithelial cells up-regulate ICAM-1 (CD54) surface expression in response to a variety of different stimuli. Therefore, using ICAM-1 expression as readout, compound effects on different signaling pathways can be assessed in the same cell type. IFNγ up-regulates ICAM-1 through activation of the JAK/Stat pathway. In this example, the up-regulation of ICAM-1 by IFNγ was assessed.
The A549 lung epithelial carcinoma cell line originated from the American Type Culture Collection. Routine culturing was with F12K media (Mediatech Inc., Lenexa, Kans., Cat. No. 10-025-CV) with 10% fetal bovine serum, 100 I.U. penicillin and […] streptomycin (complete F12k media). Cells were incubated in a humidified atmosphere of 5% CO2 at 37° C. Prior to use in the assay, A549 cells were washed with PBS and trypsinized (Mediatech Inc., Cat. No. 25-052-CI) to lift the cells. The trypsin cell suspension was neutralized with complete F12K media and centrifuged to pellet the cells. The cell pellet was resuspended in complete F12K media at a concentration of 2.0×10^5/mL. Cells were seeded at 20,000 per well, 100 μL total volume, in a flat bottom tissue culture plate and allowed to adhere overnight.
On day two, A549 cells were pre-incubated with a 2,4-pyrimidinediamine test compound or DMSO (control) (Sigma-Aldrich, St. Louis, Mo., Catalog No. D2650) for 1 hour. The cells were then stimulated with IFNγ (75 ng/mL) (Peprotech Inc., Rocky Hill, N.J., Cat. No. 300-02) and allowed to incubate for 24 hours. The final test compound dose range was 30 μM to 14 nM in 200 μL F12K media containing 5% FBS, 0.3% DMSO.
On day three, the cell media was removed and the cells were washed with 200 μL PBS (phosphate buffered saline). Each well was trypsinized to dissociate the cells, then neutralized by addition of 200 μL complete F12K media. Cells were pelleted and stained with an APC conjugated mouse anti-human ICAM-1 (CD54) (BD Pharmingen, San Diego, Calif., Catalog #559771) antibody for 20 minutes at 4° C. Cells were washed with ice cold FACS buffer (PBS+2% FBS) and surface ICAM-1 expression was analyzed by flow cytometry. Detection was performed using a BD LSR I System Flow Cytometer, purchased from BD Biosciences of San Jose, Calif. Events were gated for live scatter and the geometric mean was calculated (Becton-Dickinson CellQuest software version 3.3, Franklin Lakes, N.J.). Geometric means were plotted against the compound concentration to generate a dose response curve.

Row | IC50 [µM] | Structure (SMILES)
1 | 56.6 | C#CCNS(=O)(=O)Cc1ccc(Nc2nc(Nc3ccc(C)c(S(N)(=O)=O)c3)ncc2F)cc1 [Compound I-5, N2-(3-Aminosulfonyl-4-methylphenyl)-5-fluoro-N4-[4-(prop-2-ynylaminosulfonylmethyl)phenyl]-2,4-pyrimidinediamine]

Same assay, conditions: Table III Example 5

Row | Structure (SMILES) | IC50 [µM]
2 | CCS(=O)(=O)NCc1cccc(Nc2nc(Nc3cccc(S(N)(=O)=O)c3)ncc2F)c1 [Compound I-12, N2-(3-aminosulfonyl)phenyl-N4-(3-ethylsulfonylaminomethyl)phenyl-5-fluoro-2,4-pyrimidinediamine] | 4.57
3 | Cc1ccc(Nc2ncc(F)c(Nc3ccc(CNS(=O)(=O)C4CCCCC4)cc3)n2)cc1S(N)(=O)=O [Compound I-73, N2-(3-aminosulfonyl-4-methyl)phenyl-N4-(4-cyclohexylsulfonylaminomethyl)phenyl-5-fluoro-2,4-pyrimidinediamine] | 3.57
4 | Cc1ccc(Nc2ncc(C)c(Nc3ccc(CNS(=O)(=O)C4CC4)cc3)n2)cc1S(=O)(=O)NCc1ccccc1 [Compound I-195, N2-(3-benzylaminosulfonyl-4-methyl)phenyl-N4-(4-cyclopropylsulfonylaminomethyl)phenyl-5-methyl-2,4-pyrimidinediamine] | 3.54
5 | Cc1cnc(Nc2cccc(S(N)(=O)=O)c2)nc1Nc1ccc(CCNS(=O)(=O)C2CC2)cc1 [Compound I-54, N2-(3-aminosulfonyl)phenyl-N4-[4-(2-cyclopropylsulfonylamino)ethyl]phenyl-5-methyl-2,4-pyrimidinediamine] | 4.69
6 | Cc1cnc(Nc2cccc(S(N)(=O)=O)c2)nc1Nc1ccc(CN(C)S(=O)(=O)C2CC2)cc1 [Compound I-121, N2-(3-aminosulfonyl)phenyl-N4-[4-(N-cyclopropylsulfonyl-N-methyl)aminomethyl]phenyl-5-methyl-2,4-pyrimidinediamine] | 36.5
7 | Cc1ccc(Nc2ncc(F)c(Nc3ccc(CNS(=O)(=O)C(C)C)cc3)n2)cc1S(N)(=O)=O [Compound I-67, N2-(3-aminosulfonyl-4-methyl)phenyl-5-fluoro-N4-(4-isopropylsulfonylaminomethyl)phenyl-2,4-pyrimidinediamine] | 3.29
8 | Cc1ccc(Nc2ncc(C)c(Nc3cccc(CNS(=O)(=O)C4CC4)c3)n2)cc1S(N)(=O)=O [Compound I-52, N2-(3-aminosulfonyl-4-methyl)phenyl-N4-(3-cyclopropylsulfonylaminomethyl)phenyl-5-methyl-2,4-pyrimidinediamine] | 2.55
9 | Cc1cnc(Nc2ccc(S(N)(=O)=O)cc2)nc1Nc1ccc(CNS(=O)(=O)C(C)C)cc1 [Compound I-123, N2-(4-aminosulfonyl)phenyl-N4-(4-isopropylsulfonylaminomethyl)phenyl-5-methyl-2,4-pyrimidinediamine] | 19
10 | Cc1ccc(Nc2ncc(C)c(Nc3ccc(CNS(=O)(=O)C4CC4)cc3)n2)cc1S(=O)(=O)Nc1ccccc1 [Compound I-202, N4-(4-cyclopropylsulfonylaminomethyl)phenyl-5-methyl-N2-(4-methyl-3-phenylaminosulfonyl)phenyl-2,4-pyrimidinediamine] | 6.05
11 | CCC(=O)N(Cc1cccc(Nc2nc(Nc3cccc(S(N)(=O)=O)c3)ncc2C)c1)S(=O)(=O)C1CC1 [Compound I-116, N2-(3-aminosulfonyl)phenyl-N4-[3-(N-cyclopropylsulfonyl-N-propionyl)aminomethyl]phenyl-5-methyl-2,4-pyrimidinediamine] | 1.83
12 | C#CCNS(=O)(=O)c1cccc(Nc2ncc(C)c(Nc3ccc(CNS(=O)(=O)C4CC4)cc3)n2)c1 [Compound I-165, N4-(4-cyclopropylsulfonylaminomethyl)phenyl-5-methyl-N2-(3-propargylaminosulfonyl)phenyl-2,4-pyrimidinediamine] | 8.97
13 | Cc1cnc(Nc2cc(S(N)(=O)=O)cc(S(N)(=O)=O)c2)nc1Nc1ccc(CNS(=O)(=O)C2CC2)cc1 [Compound I-84, N4-(4-cyclopropylsulfonylaminomethyl)phenyl-N2-(3,5-diaminosulfonyl)phenyl-5-methyl-2,4-pyrimidinediamine] | 9.53
14 | COCCCNS(=O)(=O)c1cc(Nc2ncc(C)c(Nc3ccc(CNS(=O)(=O)C4CC4)cc3)n2)ccc1C [Compound I-191, N4-(4-cyclopropylsulfonylaminomethyl)phenyl-N2-[3-(3-methoxypropyl)aminosulfonyl-4-methyl]phenyl-5-methyl-2,4-pyrimidinediamine] | 3.06
15 | CCS(=O)(=O)NCc1ccc(Nc2nc(Nc3cccc(S(N)(=O)=O)c3)ncc2C)cc1 [Compound I-21, N2-(3-aminosulfonyl)phenyl-N4-(4-ethylsulfonylaminomethyl)phenyl-5-methyl-2,4-pyrimidinediamine] | 2.49
16 | NS(=O)(=O)c1cccc(Nc2ncc(F)c(Nc3ccc(CNS(=O)(=O)C4CCCCC4)cc3)n2)c1 [Compound I-72, N2-(3-aminosulfonyl)phenyl-N4-(4-cyclohexylsulfonylaminomethyl)phenyl-5-fluoro-2,4-pyrimidinediamine] | 2.66
17 | Cc1cnc(Nc2cccc(S(N)(=O)=O)c2)nc1Nc1ccc(CNS(=O)(=O)C(C)C)cc1 [Compound I-118, N2-(3-aminosulfonyl)phenyl-N4-(4-isopropylsulfonylaminomethyl)phenyl-5-methyl-2,4-pyrimidinediamine] | 2.48
18 | C#CCNS(=O)(=O)c1ccc(Nc2ncc(C)c(Nc3ccc(CNS(=O)(=O)C4CC4)cc3)n2)cc1 [Compound I-164, N4-(4-cyclopropylsulfonylaminomethyl)phenyl-5-methyl-N2-(4-propargylaminosulfonyl)phenyl-2,4-pyrimidinediamine] | 13.8
19 | CCS(=O)(=O)NCc1ccc(Nc2nc(Nc3ccc(C)c(S(N)(=O)=O)c3)ncc2F)cc1 [Compound I-10, N2-(3-aminosulfonyl-4-methyl)phenyl-N4-(4-ethylsulfonylaminomethyl)phenyl-5-fluoro-2,4-pyrimidinediamine] | 29.5
20 | Cc1ccc(Nc2ncc(C)c(Nc3ccc(CNS(=O)(=O)C4CC4)cc3)n2)cc1S(=O)(=O)NCC1CC1 [Compound I-192, N2-(3-cyclopropylmethylaminosulfonyl-4-methyl)phenyl-N4-(4-cyclopropylsulfonylaminomethyl)phenyl-5-methyl-2,4-pyrimidinediamine] | 2.3
21 | COCCNS(=O)(=O)c1cc(Nc2ncc(C)c(Nc3cccc(CNS(=O)(=O)C4CC4)c3)n2)ccc1C [Compound I-210, N4-(3-cyclopropylsulfonylaminomethyl)phenyl-N2-[3-(2-methoxyethyl)aminosulfonyl-4-methyl]phenyl-5-methyl-2,4-pyrimidinediamine] | 2.47
22 | CCNS(=O)(=O)c1ccc(Nc2ncc(C)c(Nc3ccc(CNS(=O)(=O)C4CC4)cc3)n2)cc1 [Compound I-175, N4-(4-cyclopropylsulfonylaminomethyl)phenyl-N2-(4-ethylaminosulfonyl)phenyl-5-methyl-2,4-pyrimidinediamine] | 2.37
23 | Cc1ccc(Nc2ncc(C)c(Nc3ccc(CNS(=O)(=O)C4CC4)c(Cl)c3)n2)cc1S(N)(=O)=O [Compound I-125, N2-(3-aminosulfonyl-4-methyl)phenyl-N4-(3-chloro-4-cyclopropylsulfonylaminomethyl)phenyl-5-methyl-2,4-pyrimidinediamine] | 4.03
24 | Cc1cnc(Nc2cccc(S(N)(=O)=O)c2)nc1Nc1ccc(CNS(=O)(=O)CC(F)(F)F)cc1 [Compound I-97, N2-(3-aminosulfonyl)phenyl-5-methyl-N4-(4-trifluoroethylsulfonylaminomethyl)phenyl-2,4-pyrimidinediamine] | 13.3
25 | COCCCNS(=O)(=O)c1ccc(Nc2ncc(C)c(Nc3ccc(CNS(=O)(=O)C4CC4)cc3)n2)cc1 [Compound I-181, N4-(4-cyclopropylsulfonylaminomethyl)phenyl-N2-[4-(3-methoxypropyl)aminosulfonyl]phenyl-5-methyl-2,4-pyrimidinediamine] | 2.35
